Experimental findings from US8309734B2 (Hoffmann-La Roche Inc., priority 2008, dated 2012) are described below.

This test has as its target T1, human GPBAR1 receptor (Homo sapiens, UniProt Q8TDU6).
T1 construct: expressed in transfected cells
T1 sequence (Q8TDU6 1-330): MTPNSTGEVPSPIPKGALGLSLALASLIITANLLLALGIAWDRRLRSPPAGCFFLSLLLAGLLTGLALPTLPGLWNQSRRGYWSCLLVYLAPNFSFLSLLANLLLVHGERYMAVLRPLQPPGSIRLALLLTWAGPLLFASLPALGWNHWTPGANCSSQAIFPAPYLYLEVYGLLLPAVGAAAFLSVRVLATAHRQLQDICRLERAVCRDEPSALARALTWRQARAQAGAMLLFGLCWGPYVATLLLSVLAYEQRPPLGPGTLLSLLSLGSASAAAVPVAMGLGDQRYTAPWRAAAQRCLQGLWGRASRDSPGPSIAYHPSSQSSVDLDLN
The experiment in a line: functional cAMP assay in CHO-dhfr(minus) cells expressing human GPBAR1 receptors. It is filed as cell-based. The note with it: cAMP increase (TR-FRET) in CHO-dhfr(minus) cells expressing human GPBAR1; compounds incubated 30 min at 30° C.

Molecules are shown by their SMILES.

`O=C(c1cccnc1Oc1cc(Cl)ccc1Cl)N1CCN(CC2CCC2)c2ccccc21` [Example 139, (4-Cyclobutylmethyl-3,4-dihydro-2H-quinoxalin-1-yl)-[2-(2,5-dichloro-phenoxy)-pyridin-3-yl]-methasone] had an EC50 of 926 nM.

The molecule `CC(=O)OCCN1CCN(C(=O)c2cccnc2Oc2cc(Cl)ccc2Cl)c2ccccc21` [Example 140, Acetic acid 2-{4-[2-(2,5-dichloro-phenoxy)-pyridine-3-carbonyl]-3,4-dihydro-2H-quinoxalin-1-yl}-ethyl ester] came in with an EC50 of 259 nM. Compared with the last molecule, the EC50 is about 3.6-fold lower.

As for `CCOC(=O)CN1CCN(C(=O)c2cccnc2Oc2cc(Cl)ccc2Cl)c2ccccc21` [Example 141, {4-[2-(2,5-Dichloro-phenoxy)-pyridine-3-carbonyl]-3,4-dihydro-2H-quinoxalin-1-yl}-acetic acid ethyl ester], the EC50 is 324 nM. The EC50 values of the last two molecules are within 1.5-fold of each other.

With `O=C(O)CN1CCN(C(=O)c2cccnc2Oc2cc(Cl)ccc2Cl)c2ccccc21` [Example 142, {4-[2-(2,5-Dichloro-phenoxy)-pyridine-3-carbonyl]-3,4-dihydro-2H-quinoxalin-1-yl}-acetic acid], the midpoint of the response, the EC50, lay at 307 nM.

For the molecule `O=C(O)CCc1ccc(S(=O)(=O)N2CCN(C(=O)c3cccnc3Oc3cc(Cl)ccc3Cl)c3ccccc32)cc1` [Example 143, 3-(4-{4-[2-(2,5-Dichloro-phenoxy)-pyridine-3-carbonyl]-3,4-dihydro-2H-quinoxaline-1-sulfonyl}-phenyl)-propionic acid], the EC50 was found to be 745 nM.

Molecule `O=C(c1cccnc1Oc1cc(C(F)(F)F)ccc1F)N1CCCc2ccccc21` [Example 144, (3,4-Dihydro-2H-quinolin-1-yl)-[2-(2-fluoro-5-trifluoromethyl-phenoxy)-pyridin-3-yl]-methanone] had an EC50 of 286 nM.

As to `COc1ncccc1N(C)C(=O)c1cc(F)cnc1Oc1cc(Cl)ccc1Cl` [Example 145, 2-(2,5-Dichloro-phenoxy)-5-fluoro-N-(2-methoxy-pyridin-3-yl)-N-methyl-nicotinamide], the response was half-maximal at 29 nM (EC50).

Molecule `COc1ccc(Cl)c(N(C)C(=O)c2cc(F)cnc2Oc2cc(Cl)ccc2Cl)c1Cl` [Example 146, N-(2,6-Dichloro-3-methoxy-phenyl)-2-(2,5-dichloro-phenoxy)-5-fluoro-N-methyl-nicotinamide] displayed a 50% effective concentration (EC50) of 1970 nM.

Regarding `O=C(c1cc(F)cnc1Oc1cc(Cl)ccc1Cl)N1CCNc2ccccc21` [Example 147, [2-(2,5-Dichloro-phenoxy)-5-fluoro-pyridin-3-yl]-(3,4-dihydro-2H-quinoxalin-1-yl)-methanone], the EC50 turned out to be 15 nM. Compared with the last molecule, the EC50 is about 130-fold lower.

On to `COC(=O)C1CCN(C(=O)c2cc(F)cnc2Oc2cc(Cl)ccc2Cl)c2ccccc21` (stereo not shown) [Example 148, 1-[2-(2,5-Dichloro-phenoxy)-5-fluoro-pyridine-3-carbonyl]-1,2,3,4-tetrahydro-quinoline-4-carboxylic acid methyl ester], for which the EC50 turned out to be 1960 nM.

Turning to `O=C(c1cc(F)cnc1Oc1cc(Cl)ccc1Cl)N1Cc2cccn2-c2ccccc21` [Example 149], the EC50 was found to be 155 nM.

In the case of `O=C(c1cc(F)cnc1Oc1cc(Cl)ccc1Cl)N1CCN(C2CCC2)c2ccccc21` [Example 150, (4-Cyclobutyl-3,4-dihydro-2H-quinoxalin-1-yl)-[2-(2,5-dichloro-phenoxy)-5-fluoro-pyridin-3-yl]-methanone], the response was half-maximal at 58 nM (EC50).

The molecule `O=C(c1cc(F)cnc1Oc1cc(Cl)ccc1Cl)N1CCN(Cc2ccoc2)c2ccccc21` [Example 151, [2-(2,5-Dichloro-phenoxy)-5-fluoro-pyridin-3-yl]-(4-furan-3-ylmethyl-3,4-dihydro-2H-quinoxalin-1-yl)-methanone] yielded an EC50 of 1070 nM.

For the molecule `O=C(c1cc(F)cnc1Oc1cc(Cl)ccc1Cl)N1CCN(CC2CCC2)c2ccccc21` [Example 152, (4-Cyclobutylmethyl-3,4-dihydro-2H-quinoxalin-1-yl)-[2-(2,5-dichloro-phenoxy)-5-fluoro-pyridin-3-yl]-methanone], the EC50 was determined as 689 nM. This EC50 is about 1.6-fold lower than that of the molecule before.

In the case of `O=C(c1cc(F)cnc1Oc1cc(Cl)ccc1Cl)N1CCN(CCC(F)(F)F)c2ccccc21` [Example 153, [2-(2,5-Dichloro-phenoxy)-5-fluoro-pyridin-3-yl]-[4-(3,3,3-trifluoro-propyl)-3,4-dihydro-2H-quinoxalin-1-yl]-methanone], the concentration for a half-maximal effect (EC50) is 565 nM.

For `CCOC(=O)CN1CCN(C(=O)c2cc(F)cnc2Oc2cc(Cl)ccc2Cl)c2ccccc21` [Example 154, {4-[2-(2,5-Dichloro-phenoxy)-5-fluoro-pyridine-3-carbonyl]-3,4-dihydro-2H-quinoxalin-1-yl}-acetic acid ethyl ester], it took 53 nM to reach a half-maximal effect (EC50). Against the preceding molecule, the EC50 is about 11-fold lower.

With `O=C(O)CN1CCN(C(=O)c2cc(F)cnc2Oc2cc(Cl)ccc2Cl)c2ccccc21` [Example 155, {4-[2-(2,5-Dichloro-phenoxy)-5-fluoro-pyridine-3-carbonyl]-3,4-dihydro-2H-quinoxalin-1-yl}-acetic acid], it took 788 nM to reach a half-maximal effect (EC50).

Turning to `CCOC(=O)CCN1CCN(C(=O)c2cc(F)cnc2Oc2cc(Cl)ccc2Cl)c2ccccc21` [Example 156, 3-{4-[2-(2,5-Dichloro-phenoxy)-5-fluoro-pyridine-3-carbonyl]-3,4-dihydro-2H-quinoxalin-1-yl}-propionic acid ethyl ester], the EC50 stood at 841 nM.

In turn, `CC(CN1CCN(C(=O)c2cc(F)cnc2Oc2cc(Cl)ccc2Cl)c2ccccc21)C(=O)O` (stereo not shown) [Example 157, 3-{4-[2-(2,5-Dichloro-phenoxy)-5-fluoro-pyridine-3-carbonyl]-3,4-dihydro-2H-quinoxalin-1-yl}-2-methyl-propionic acid] gave an EC50 of 1680 nM.

For `CCOC(=O)CCCN1CCN(C(=O)c2cc(F)cnc2Oc2cc(Cl)ccc2Cl)c2ccccc21` [Example 158, 4-{4-[2-(2,5-Dichloro-phenoxy)-5-fluoro-pyridine-3-carbonyl]-3,4-dihydro-2H-quinoxalin-1-yl}-butyric acid ethyl ester], the EC50 is 384 nM. This EC50 is about 4.4-fold lower than that of the molecule before.

In turn, `CCOC(=O)CCCCN1CCN(C(=O)c2cc(F)cnc2Oc2cc(Cl)ccc2Cl)c2ccccc21` [Example 159, 5-{4-[2-(2,5-Dichloro-phenoxy)-5-fluoro-pyridine-3-carbonyl]-3,4-dihydro-2H-quinoxalin-1-yl}-pentanoic acid ethyl ester] came in with a 50% effective concentration (EC50) of 395 nM.

`COC(=O)CCCCCN1CCN(C(=O)c2cc(F)cnc2Oc2cc(Cl)ccc2Cl)c2ccccc21` [Example 160, 6-{4-[2-(2,5-Dichloro-phenoxy)-5-fluoro-pyridine-3-carbonyl]-3,4-dihydro-2H-quinoxalin-1-yl}-hexanoic acid methyl ester] had an EC50 of 724 nM.

For the molecule `O=C(O)CCCCCN1CCN(C(=O)c2cc(F)cnc2Oc2cc(Cl)ccc2Cl)c2ccccc21` [Example 161, 6-{4-[2-(2,5-Dichloro-phenoxy)-5-fluoro-pyridine-3-carbonyl]-3,4-dihydro-2H-quinoxalin-1-yl}-hexanoic acid], the concentration giving a half-maximal response (EC50) came to 104 nM. This EC50 is about 7-fold lower than that of the molecule before.

Take `COC(=O)c1ccc(C(=O)N2CCN(C(=O)c3cc(F)cnc3Oc3cc(Cl)ccc3Cl)c3ccccc32)cc1` [Example 162, 4-{4-[2-(2,5-Dichloro-phenoxy)-5-fluoro-pyridine-3-carbonyl]-3,4-dihydro-2H-quinoxaline-1-carbonyl}-benzoic acid methyl ester]: it took 1160 nM to reach a half-maximal effect (EC50). Against the preceding molecule, the EC50 is about 11-fold higher.

In turn, `O=C(c1cccnc1Oc1cc(Cl)c(Br)cc1Cl)N1CCN(C2CC2)c2ccccc21` [Example 163, [2-(4-Bromo-2,5-dichloro-phenoxy)-pyridin-3-yl]-(4-cyclopropyl-3,4-dihydro-2H-quinoxalin-1-yl)-methanone] returned an EC50 of 54 nM. This EC50 is about 21-fold lower than that of the molecule before.

As for `O=C(c1cccnc1Oc1cc(Cl)c(C#CCO)cc1Cl)N1CCN(C2CC2)c2ccccc21` [Example 164, (4-Cyclopropyl-3,4-dihydro-2H-quinoxalin-1-yl)-{2-[2,5-dichloro-4-(3-hydroxy-prop-1-ynyl)-phenoxy]-pyridin-3-yl}-methanone], the EC50 turned out to be 36 nM.

For `O=C(c1cccnc1Oc1cc(Cl)c(Br)cc1Cl)N1CCCc2ccccc21` [Example 165, [2-(4-Bromo-2,5-dichloro-phenoxy)-pyridin-3-yl]-(3,4-dihydro-2H-quinolin-1-yl)-methanone], the EC50 was found to be 340 nM.

In the case of `COC(=O)CCC#Cc1cc(Cl)c(Oc2ncccc2C(=O)N2CCCc3ccccc32)cc1Cl` [Example 166, 5-{2,5-Dichloro-4-[3-(3,4-dihydro-2H-quinoline-1-carbonyl)-pyridin-2-yloxy]-phenyl}-pent-4-ynoic acid methyl ester], a half-maximal response (EC50) required 148 nM.

Consider `COC(=O)c1ccc(C#Cc2cc(Cl)c(Oc3ncccc3C(=O)N3CCN(C4CC4)c4ccccc43)cc2Cl)cc1Cl` [Example 167, 2-Chloro-4-{2,5-dichloro-4-[3-(4-cyclopropyl-3,4-dihydro-2H-quinoxaline-1-carbonyl)-pyridin-2-yloxy]-phenylethynyl}-benzoic acid methyl ester], for which a half-maximal effect (EC50) was put at 211 nM. This EC50 and that of the molecule before are within 1.5-fold of each other.

Molecule `O=C(O)c1ccc(C#Cc2cc(Cl)c(Oc3ncccc3C(=O)N3CCN(C4CC4)c4ccccc43)cc2Cl)cc1Cl` [Example 168, 2-Chloro-4-{2,5-dichloro-4-[3-(4-cyclopropyl-3,4-dihydro-2H-quinoxaline-1-carbonyl)-pyridin-2-yloxy]-phenylethynyl}-benzoic acid] came in with an EC50 of 1440 nM. Compared with the last molecule, the EC50 is about 6.8-fold higher.

Take `O=C(O)c1ccc(CCc2cc(Cl)c(Oc3ncccc3C(=O)N3CCN(C4CC4)c4ccccc43)cc2Cl)cc1Cl` [Example 169, 2-Chloro-4-(2-{2,5-dichloro-4-[3-(4-cyclopropyl-3,4-dihydro-2H-quinoxaline-1-carbonyl)-pyridin-2-yloxy]-phenyl}-ethyl)-benzoic acid]: the EC50 stood at 127 nM. This EC50 lies about 11-fold lower than the previous one.
